The source of these data is ChEMBL document CHEMBL5096153, “Spirocyclic Scaffolds in Medicinal Chemistry” (J Med Chem, 2021).

Data set [1] is described as follows: Metabolic stability in human liver microsomes assessed as compound remaining. Type of data set: ADME, Microsome.
The nature of data set [2]: Octanol-water partition coefficient, log P of the compound by LC-MS/MS analysis. Type of data set: physicochemical.
Data set [3] in a line: Inhibition of Plasmodium vivax SHMT.
A short description of data set [4]: Cytotoxicity against human HUVEC cells assessed as reduction in cell viability. Type of data set: toxicity, cell-based.
Data set [5] in a line: AUC (0 to infinity) in rat plasma at 5 mg/kg, po. In kind it is ADME, organism-based. More on the design: time infinity, dose 5 mg/kg, route po.
The nature of data set [6]: Cmax in rat plasma at 5 mg/kg, po. In kind it is ADME, organism-based. Set-up: dose 5 mg/kg, route po.
Data set [7] in a line: AUC (0 to 4 hrs) in rat at 5 mg/kg, po. Type of data set: ADME, organism-based. More on the design: time < 4 hr, dose 5 mg/kg, route po. To be noted: in vivo.
Data set [8] in a line: Volume of distribution in rat at 2 mg/kg, iv. In kind it is ADME, organism-based. The conditions noted are these: in vivo.
For data set [9], the target named is T1, Retinoic acid receptor RXR-alpha (Homo sapiens) (UniProt P19793).
T1 sequence (whole entry): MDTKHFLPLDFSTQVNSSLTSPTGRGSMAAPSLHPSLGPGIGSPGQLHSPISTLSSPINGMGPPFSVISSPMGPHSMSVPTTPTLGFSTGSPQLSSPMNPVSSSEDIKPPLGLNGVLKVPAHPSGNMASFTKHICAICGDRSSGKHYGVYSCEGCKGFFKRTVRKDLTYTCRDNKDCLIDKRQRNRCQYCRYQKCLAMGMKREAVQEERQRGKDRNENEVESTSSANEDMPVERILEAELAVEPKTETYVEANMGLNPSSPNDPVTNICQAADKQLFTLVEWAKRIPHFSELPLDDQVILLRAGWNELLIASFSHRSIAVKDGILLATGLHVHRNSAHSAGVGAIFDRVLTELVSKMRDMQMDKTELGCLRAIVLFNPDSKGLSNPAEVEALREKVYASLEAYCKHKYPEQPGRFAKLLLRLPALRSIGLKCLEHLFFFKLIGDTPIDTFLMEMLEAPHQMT
Nature of the data set: Agonist activity at RXRalpha (unknown origin) using fluorescein-D22 as substrate by fluorescence polarization assay relative to control. A general note: In fluorescence polarisation assays a small probe gives low polarisation when free and higher when bound to something large.

The nature of data set [10]: Selectivity ratio of Ki for rat liver Sigma2 receptor to Ki for Guinea pig brain Sigma1 receptor.
Data set [11] addresses Phosphoglycerate mutase 1 (Homo sapiens, UniProt P18669). Nature of the data set: Inhibition of PGAM1 in human MDA-MB-231 cells. Type of data set: cell-based.
In data set [12] the test system is MDA-MB-231. The data set is described as follows: Cytotoxicity against human MDA-MB-231 cells assessed as cell growth inhibition. In kind it is functional, cell-based.
Data set [13] has as its target T2, Retinoic acid receptor RXR-alpha (Homo sapiens, UniProt P19793).
T2 sequence (P19793 whole entry): T1 sequence (whole entry)
Nature of the data set: Agonist activity at RXRalpha (unknown origin) using fluorescein-D22 as substrate by fluorescence polarization assay.

Data set [14] deals with Influenza A virus. The data set is described as follows: Antiviral activity against wild-type Influenza A virus A/M2 assessed as viral growth inhibition. In kind it is functional, organism-based.
In data set [15] the target is NF-kappa-B essential modulator (Homo sapiens, UniProt Q9Y6K9). Nature of the data set: Binding affinity to full-length human NEMO (1 to 419 residues) assessed as dissociation constant.
NF-kappa-B essential modulator, sequence (Q9Y6K9 whole entry, the tested form may be a part): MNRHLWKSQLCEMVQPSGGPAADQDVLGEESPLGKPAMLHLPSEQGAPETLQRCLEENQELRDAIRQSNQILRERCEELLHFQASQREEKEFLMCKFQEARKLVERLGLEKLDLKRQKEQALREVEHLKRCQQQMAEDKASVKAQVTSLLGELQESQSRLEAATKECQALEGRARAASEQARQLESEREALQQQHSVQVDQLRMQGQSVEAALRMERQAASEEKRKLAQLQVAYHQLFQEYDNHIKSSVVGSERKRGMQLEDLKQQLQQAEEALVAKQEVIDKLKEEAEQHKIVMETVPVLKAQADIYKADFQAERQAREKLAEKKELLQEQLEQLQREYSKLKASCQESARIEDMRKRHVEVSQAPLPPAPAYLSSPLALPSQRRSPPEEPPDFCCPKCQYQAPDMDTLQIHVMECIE

Phosphoglycerate mutase 1, sequence (P18669 whole entry): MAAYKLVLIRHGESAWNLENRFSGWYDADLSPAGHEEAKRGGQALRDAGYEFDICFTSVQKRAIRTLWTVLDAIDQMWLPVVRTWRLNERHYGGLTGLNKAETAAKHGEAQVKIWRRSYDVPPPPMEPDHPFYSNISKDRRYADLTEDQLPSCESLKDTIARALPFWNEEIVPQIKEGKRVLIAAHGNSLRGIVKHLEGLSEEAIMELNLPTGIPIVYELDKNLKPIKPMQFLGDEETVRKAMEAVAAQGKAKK

As to `O=C1Nc2cc(C(F)(F)F)ccc2C12Cc1ccccc1B(O)O2` (centres undefined), the Stability in [1] is above 80%. Further, in data set [2], the lipophilicity (logP) was below 4.
Consider `Cc1[nH]nc2c1[C@]1(C(C#N)=C(N)O2)c2cc(N3CCC(CC(=O)O)CC3)cc(F)c2CC1(C)C`, for which inhibition in data set [3] was half-maximal at 43 nM (IC50).
On to `O=C1Nc2ccc(Cl)cc2C12Cc1ccccc1B(O)O2` (centres undefined), for which the Stability in [1] was above 80%. Also, the lipophilicity (logP) in data set [2] is below 4.
For `O=C1Nc2ccc(F)cc2C12Cc1ccccc1B(O)O2` (centres undefined), in [1], the Stability was above 80%. For the same compound, the lipophilicity (logP) in data set [2] is below 4.
Consider `COc1ccc(Cn2nnc3c2[C@]2(CC[C@H]3OC(=O)NC(C)C)CO2)cc1`, for which, in data set [4], the concentration for a half-maximal effect (EC50) came to 94 nM.
Compound `Cc1[nH]nc2c1C1(C(C#N)=C(N)O2)c2cc(N3CCC(CC(=O)O)CC3)cc(F)c2CC1(C)C` (racemic) had a 50% inhibitory concentration (IC50) in data set [3] of 61 nM.
With `COc1ccc2nc3c(nc2c1)O[C@@H]1C[C@H]2C(=O)N[C@]4(C(=O)NS(=O)(=O)C5(C)CC5)C[C@H]4/C=C\CCCCC[C@H](NC(=O)O[C@@H]4CCC[C@H]4CCCCC3)C(=O)N2C1.[K+]`, the AUC(0-inf) in data set [5] was found to be 2.4 µM·h. The compound further gave a Cmax in [6] of 70 nM.
In data set [3], `Cc1[nH]nc2c1[C@@]1(C(C#N)=C(N)O2)c2cc(N3CCC(CC(=O)O)CC3)cc(F)c2CC1(C)C` had an IC50 of 2510 nM.
`COc1ccc2nc3c(nc2c1)O[C@@H]1C[C@H]2C(=O)N[C@]4(C(=O)NS(=O)(=O)C5(C)CC5)C[C@H]4/C=C\CCCCC[C@H](NC(=O)O[C@@H]4CCC[C@H]4CCCCC3)C(=O)N2C1` gave an AUC(0-t) at 4 h in data set [7] of 0.77 µM·h. Further, in data set [8], the Vd turned out to be 4 L/kg.
On to `CN1C(=O)C2(Cc3ccccc3B(O)O2)c2ccccc21` (centres undefined), for which the Stability in [1] is above 80%. The logP in data set [2] is below 4.
Regarding `CC1(C)CCC(C)(C)c2cc3c(cc21)CCC1(CCc2cc(C(=O)O)ccc2O1)O3` (racemic) [listing 1 of 2 here], in data set [9] (filed as agonist), the Efficacy is 53%.
On to `c1ccc(CN2CCC3(CCCc4ccccc43)CC2)cc1`, for which the Ratio Ki in [10] is 22.
In the case of `O=C1Nc2ccccc2C12Cc1ccccc1B(O)O2` (centres undefined), in data set [1], the Stability is given as above 80%. This compound also yielded a logP in [2] below 4.
In the case of `C#CCCCC(=O)OC(C)(C)C1CCC2(CO2)C(OC(=O)N[C@@H](Cc2c[nH]c3ccccc23)C(=O)OCc2ccccc2)C1` (some centres undefined), the IC50 in [11] is 33000 nM; in [12], 19000 nM.
On to `c1ccc(CN2CC[Si]3(CCCc4ccccc43)CC2)cc1`, for which the Ratio Ki in [10] amounted to 221.
For `CC1(C)CCC(C)(C)c2cc3c(cc21)CCC1(CCc2cc(C(=O)O)ccc2O1)O3` (stereo in doubt; form 1) [listing 1 of 2 here], the midpoint of the response in [13], the EC50, lay at 170 nM.
Regarding `CC1(C)CCC(C)(C)c2cc3c(cc21)CCC1(CCc2cc(C(=O)O)ccc2O1)O3` (stereo in doubt; form 2) [listing 1 of 2 here], the Efficacy in data set [9] was 26%.
`CC1(C)CCC(C)(C)c2cc3c(cc21)CCC1(CCc2cc(C(=O)O)ccc2O1)O3` (stereo in doubt; form 2) [listing 2 of 2 here] yielded an EC50 in data set [13] of 1200 nM.
For the compound `O=C1Nc2cc(Cl)ccc2C12Cc1ccccc1B(O)O2` (centres undefined), the Stability in data set [1] is on record as above 80%. Moreover, the log partition coefficient (logP) in data set [2] is below 4.
As for `NC1CC[Si]2(CCCC2)CC1`, the half-maximal inhibitory concentration (IC50) in [14] turned out to be 7800 nM.
Compound `CC1(C)CCC(C)(C)c2cc3c(cc21)CCC1(CCc2cc(C(=O)O)ccc2O1)O3` (stereo in doubt; form 1) [listing 2 of 2 here] had an Efficacy in [9] (filed as agonist) of 54%.
`CC1(C)CCC(C)(C)c2cc3c(cc21)CCC1(CCc2cc(C(=O)O)ccc2O1)O3` (racemic) [listing 2 of 2 here] yielded an EC50 in [13] of 730 nM.
For the compound `Cc1ccc([C@@H]2[C@H]3C=C(C=O)[C@@H](c4ccc(C)cc4)[C@H]([N+](=O)[O-])[C@@H]3C[C@@]23C(=O)N(C)c2ccccc23)cc1`, the Kd in [15] stood at 80 nM.
Regarding `NC1CCC2(CCCC2)CC1`, the 50% inhibitory concentration (IC50) in data set [14] is 3300 nM.
In the case of `Cc1ccc([C@@H]2[C@H]3C=C(C=O)[C@@H](c4ccc(C)cc4)[C@H]([N+](=O)[O-])[C@@H]3C[C@]23C(=O)N(C)c2ccccc23)cc1`, the Kd in [15] came to 190 nM.

For orientation: logP means the decadic logarithm of the partition coefficient of the neutral form, usually between octanol and water. Read a high logP as a more lipophilic compound. By IC50 is commonly meant the concentration that gives 50% inhibition. The term EC50 denotes the concentration at which the effect is half-maximal. In general, AUC(0-inf) refers to the area under the concentration-time curve extrapolated to infinity. One may read the Cmax as the highest concentration seen after dosing. Usually AUC(0-t) stands for exposure summed from dosing to a finite time, without extrapolation to infinity. Read a low AUC(0-t) as less exposure. By Vd is commonly meant a proportionality between amount in the body and measured concentration, not a real space. The low end stands for little distribution into tissue, the high end for wide distribution into tissue. As usually defined, the Kd is the equilibrium constant for the complex coming apart.
